We go through 15 compounds from ChEMBL document CHEMBL5055627 (J Med Chem, 2021).

The nature of data set [1]: Inhibition of Mycobacterium tuberculosis 20S proteasome open gate mutant expressed in Escherichia coli BL21(DE3) using Suc-LLVY-AMC as substrate measured over 1.5 to 2 hrs by plate reader assay.
Data set [2] relates to human 20S immunoproteasome subunit beta-5i (versus Mycobacterium tuberculosis 20S open gate mutant). Briefly: Selectivity index, ratio of IC50 for human 20S immunoproteasome subunit beta-5i to IC50 for Mycobacterium tuberculosis 20S open gate mutant. The class given is toxicity. The settings on record: read-out: Ratio IC50.
Data set [3] deals with human 20S constitutive proteasome subunit beta-5c (versus Mycobacterium tuberculosis 20S open gate mutant). Briefly: Selectivity index, ratio of IC50 for human 20S constitutive proteasome subunit beta-5c to IC50 for Mycobacterium tuberculosis 20S open gate mutant. The settings on record: read-out: Ratio IC50. Type of data set: toxicity.

Molecules are shown by their SMILES. pIC50: −log10 of the molar value.

In general, pIC50 refers to −log10 of the IC50, conventionally taken in molar units. Lower therefore signals a large IC50. Compound `O=C1CCc2cccc(c2)Oc2ccc(cc2)C[C@@H](C(=O)NCc2ccccc2F)NC(=O)[C@H](CC(=O)N2CCC[C@@H]2c2ccccc2)N1` had a pIC50 in data set [1] of 8.13. The selectivity ratio in data set [2] and in data set [3] was greater than 13600 throughout.

Compound `O=C1CCCCCCCCOC[C@@H](C(=O)NCc2ccccc2F)NC(=O)[C@H](CC(=O)N2CCC[C@@H]2c2ccccc2)N1` had a pIC50 in data set [1] of 8.15. Moreover, the selectivity ratio in data set [2] and in data set [3] was greater than 14000 throughout.

In data set [1], `O=C(N[C@H]1Cc2cccc(c2)Oc2ccc(cc2)C[C@@H](C(=O)NCc2ccccc2F)NC(=O)[C@H](CC(=O)N2CCC[C@@H]2c2ccccc2)NC1=O)c1ccccc1` gave a pIC50 of 6.08. Further, the selectivity ratio in data set [2] and in data set [3] was greater than 119 throughout.

In turn, `O=C1CCc2cccc(c2)OCCCC[C@@H](C(=O)NCc2ccccc2F)NC(=O)[C@H](CC(=O)N2CCC[C@@H]2c2ccccc2)N1` had a pIC50 in data set [1] of 8.15. Moreover, the selectivity ratio in data set [2] and in data set [3] was greater than 14000 each time.

`O=C1CCc2cccc(c2)OCCCC[C@@H](C(=O)NCc2ccccc2F)NC(=O)[C@H](CC(=O)N2CCC[C@@H]2C2CC2)N1` showed a pIC50 in data set [1] of 8.15. Moreover, the selectivity ratio in data set [2] and in data set [3] was 11 throughout.

On to `O=C1CCc2cccc(c2)OCCCC[C@@H](C(=O)NCc2ccccc2F)NC(=O)[C@H](CC(=O)N2CCC[C@H]2C2CC2)N1`, for which the pIC50 in data set [1] is 7.10. Further, the selectivity ratio in data set [2] was found to be 11; in data set [3], 19.

For `O=C1CCc2cccc(c2)OCCCC[C@@H](C(=O)NCc2ccccc2F)NC(=O)[C@H](CCN2CCC[C@@H]2c2ccccc2)N1`, the pIC50 in data set [1] is 5.82. The values for the selectivity ratio in data set [2] and in data set [3] were 31 and 57, respectively.

Take `CCN(CC)C(=O)C[C@H](NC(=O)CCc1ccccc1)C(=O)N[C@@H](Cc1ccc(F)cc1)C(=O)NCc1cccc2ccccc12`: the pIC50 in data set [1] is 7.82. For the same compound, the selectivity ratio was found to be 3650 in data set [2] and 4670 in data set [3].

`Cc1ccc(CNC(=O)[C@@H]2Cc3cccc(c3)Oc3cccc(c3)C[C@H](N)C(=O)N[C@@H](CCc3ccccc3)C(=O)N2)cc1` had a negative-log IC50 (pIC50) in data set [1] of less than 4.00.

`CC(=O)N[C@H]1Cc2cccc(c2)Oc2ccc(cc2)C[C@@H](C(=O)NCc2ccccc2F)NC(=O)[C@H](CC(=O)N2CCC[C@@H]2c2ccccc2)NC1=O`: the pIC50 in data set [1] is 6.77. For the same compound, the selectivity ratio in data set [2] and in data set [3] was greater than 594 throughout.

For `O=C1CCCCCCCCCC[C@@H](C(=O)NCc2cccc3ccccc23)NC(=O)[C@H](CC(=O)N2CCCC2)N1`, in data set [1], the pIC50 was 6.82.

For `O=C1CCc2cccc(c2)Oc2ccc(cc2)C[C@@H](C(=O)NCc2ccccc2F)NC(=O)[C@H](CC(=O)N2CCCC2)N1`, in data set [1], the negative-log IC50 (pIC50) is 6.70. Besides, the selectivity ratio in data set [2] was 108.

`O=C1CCCCCCCCC[C@@H](C(=O)NCc2cccc3ccccc23)NC(=O)[C@H](CC(=O)N2CCCC2)N1` gave a pIC50 in data set [1] of 6.15.

Consider `O=C1N[C@@H](CC(=O)N2CCCC2)C(=O)N[C@H](C(=O)NCc2cccc3ccccc23)CCCCCCCCCC1Cc1ccccc1` (some centres undefined), for which, in data set [1], the pIC50 is 5.30.

With `O=C1CCCCCCCCOC[C@@H](C(=O)NCc2cccc3ccccc23)NC(=O)[C@H](CC(=O)N2CCCC2)N1`, in data set [1], the pIC50 was 7.00.
